Experimental data from patent US20260297080A1, “BICYCLIC COMPOUNDS AS CDK INHIBITORS” (BeOne Medicines I GmbH, priority 2022, published 2026).

Tests used:
[1] = target: CDK2/Cyclin E1 (Homo sapiens, UniProt P24941); assay: CDK2/Cyclin E1 Biochemical Assay (TR-FRET), 0.060 mM ATP; conditions: 0.15 μM Rb (Ser780)-biotin substrate, pH7.0, 60 min preincubation, 120 min reaction, room temperature
How it was run: (§1)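 Kinase preincubated with compound (0–10 μM) 60 min at room temperature, then reaction started with ATP and 0.15 μM Rb (Ser780)-biotin peptide and run 120 min in HEPES pH 7.0 buffer with 50 mM MgCl2. Phospho-Rb detected by Eu-cryptate anti-pRb(Ser780)/streptavidin-XL665 TR-FRET (665/620 nm ratio); IC50 from four-parameter logistic fit.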

[2] = target: CDK1/Cyclin B1 (Homo sapiens, UniProt P06493); assay: CDK1/Cyclin B1 Biochemical Assay (TR-FRET), 0.015 mM ATP; conditions: 0.15 μM Rb (Ser780)-biotin substrate, pH7.0, 60 min preincubation, 120 min reaction, room temperature
How it was run: as §1

CDK1/Cyclin B1, sequence (P06493 whole entry): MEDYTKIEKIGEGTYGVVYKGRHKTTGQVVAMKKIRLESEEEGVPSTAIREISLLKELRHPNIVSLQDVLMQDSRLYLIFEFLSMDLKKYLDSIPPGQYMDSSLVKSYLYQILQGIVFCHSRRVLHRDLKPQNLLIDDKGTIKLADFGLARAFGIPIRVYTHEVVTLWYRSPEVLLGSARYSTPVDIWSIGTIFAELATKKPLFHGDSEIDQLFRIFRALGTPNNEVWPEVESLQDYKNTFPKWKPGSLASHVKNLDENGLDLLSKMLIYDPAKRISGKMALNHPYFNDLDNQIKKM
CDK1/Cyclin B1, sequence (P14635 whole entry partner): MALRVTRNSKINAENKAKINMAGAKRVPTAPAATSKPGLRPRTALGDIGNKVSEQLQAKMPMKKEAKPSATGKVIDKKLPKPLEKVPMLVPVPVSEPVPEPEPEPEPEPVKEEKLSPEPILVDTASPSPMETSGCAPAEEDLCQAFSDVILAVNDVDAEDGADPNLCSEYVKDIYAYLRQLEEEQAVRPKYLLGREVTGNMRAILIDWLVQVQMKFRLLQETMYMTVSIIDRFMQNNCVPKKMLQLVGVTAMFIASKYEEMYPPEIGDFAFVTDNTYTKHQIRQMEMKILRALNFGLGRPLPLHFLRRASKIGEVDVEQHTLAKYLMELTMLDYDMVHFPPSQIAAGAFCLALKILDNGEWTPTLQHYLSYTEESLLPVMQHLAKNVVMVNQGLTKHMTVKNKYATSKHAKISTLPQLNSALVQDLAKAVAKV

Compound | IC50 [1] | IC50 [2]
CC(C)(C)NC(=O)O[C@H]1CC[C@@H](c2cc(Nc3cc4c(cc3F)NS(=O)(=O)C4)n[nH]2)C1 [Example 404b] | 0.014 µM | 0.458 µM
CC(=O)N1CC(CN2c3ccc(Nc4cc([C@@H]5CC[C@H](OC(=O)NC(C)C)C5)[nH]n4)cc3CS2(=O)=O)C1 (relative stereo) [Example 214, cis-3-(3-((1-((1-acetylazetidin-3-yl)methyl)-2,2-dioxido-1,3-dihydrobenzo[c]isothiazol-5-yl)amino)-1H-pyrazol-5-yl)cyclopentyl isopropylcarbamate] | 0.0017 µM | 0.044 µM
O=C(NC1(CO)CCC1)O[C@H]1CC[C@@H](c2cc(Nc3ccc4c(c3F)CNS4(=O)=O)n[nH]2)C1 (relative stereo) [Example 385, cis-3-(3-((4-fluoro-1,1-dioxido-2,3-dihydrobenzo[d]isothiazol-5-yl)amino)-1H-pyrazol-5-yl)cyclopentyl(1-(hydroxymethyl)cyclobutyl)carbamate] | 0.0019 µM | 0.138 µM
Cc1cc2c(cc1Nc1cc([C@@H]3CC[C@H](OC(=O)NC(C)C)C3)[nH]n1)CS(=O)(=O)N2C (relative stereo) [Example 244, cis-3-(3-((1,6-dimethyl-2,2-dioxido-1,3-dihydrobenzo[c]isothiazol-5-yl)amino)-1H-pyrazol-5-yl)cyclopentyl isopropylcarbamate] | 1.06 µM | 7.26 µM
CC1(NC(=O)O[C@H]2CC[C@@H](c3cc(Nc4ccc5c(c4Cl)CNS5(=O)=O)n[nH]3)C2)CC1 (single isomer, unassigned) [Example 40a, cis-3-(3-((4-chloro-1,1-dioxido-2,3-dihydrobenzo[d]isothiazol-5-yl)amino)-1H-pyrazol-5-yl)cyclopentyl(1-methylcyclopropyl)carbamate] | 0.0054 µM | 0.37 µM
C[C@@H](CO)NC(=O)O[C@H]1CC[C@@H](c2cc(Nc3ccc4c(c3F)CS(=O)(=O)N4C)n[nH]2)C1 (relative stereo) [Example 348, cis-3-(3-((4-fluoro-1-methyl-2,2-dioxido-1,3-dihydrobenzo[c]isothiazol-5-yl)amino)-1H-pyrazol-5-yl)cyclopentyl((S)-1-hydroxypropan-2-yl)carbamate] | 0.022 µM | 0.635 µM
CC[C@H](C)NC(=O)O[C@H]1CC[C@@H](c2cc(Nc3cc4c(cc3F)S(=O)(=O)NC4)n[nH]2)C1 (relative stereo) [Example 43, cis-3-(3-((6-fluoro-1,1-dioxido-2,3-dihydrobenzo[d]isothiazol-5-yl)amino)-1H-pyrazol-5-yl)cyclopentyl((S)-sec-butyl)carbamate] | 0.0011 µM | 0.13 µM
CC(C)(O)CNC(=O)O[C@H]1CC[C@@H](c2cc(Nc3ccc4c(c3F)CNS4(=O)=O)n[nH]2)C1 (relative stereo) [Example 146, cis-3-(3-((4-fluoro-1,1-dioxido-2,3-dihydrobenzo[d]isothiazol-5-yl)amino)-1H-pyrazol-5-yl)cyclopentyl(2-hydroxy-2-methylpropyl)carbamate] | 0.0081 µM | 0.323 µM
CC(C)NC(=O)O[C@H]1CC[C@@H](c2cc(Nc3ccc4c(c3)CS(=O)(=O)N4CC(C)(C)O)n[nH]2)C1 (relative stereo) [Example 216, cis-3-(3-((1-(2-hydroxy-2-methylpropyl)-2,2-dioxido-1,3-dihydrobenzo[c]isothiazol-5-yl)amino)-1H-pyrazol-5-yl)cyclopentyl isopropylcarbamate] | 0.0078 µM | 0.054 µM
Cc1cc2c(cc1Nc1cc([C@@H]3CC[C@H](OC(=O)NC(C)C)C3)[nH]n1)S(=O)(=O)NC2 (relative stereo) [Example 185, cis-3-(3-((5-methyl-1,1-dioxido-2,3-dihydrobenzo[d]isothiazol-6-yl)amino)-1H-pyrazol-5-yl)cyclopentyl isopropylcarbamate] | 0.239 µM | 1.42 µM
C[C@H]1[C@H](O)CN1C(=O)O[C@H]1CC[C@@H](c2cc(Nc3ccc4c(c3)CS(=O)(=O)N4C)n[nH]2)C1 (relative stereo) [Example 354, cis-3-(3-((1-methyl-2,2-dioxido-1,3-dihydrobenzo[c]isothiazol-5-yl)amino)-1H-pyrazol-5-yl)cyclopentyl(2S,3R)-3-hydroxy-2-methylazetidine-1-carboxylate] | 0.011 µM | 0.085 µM
O=C(NC1CCCC1)O[C@H]1CC[C@@H](c2cc(Nc3ccc4c(c3F)CS(=O)(=O)N4)n[nH]2)C1 (single isomer, unassigned) [Example 400b] | 0.0034 µM | 0.064 µM

Now from value to molecule:

IC50 [1] | IC50 [2] | Compound
0.0031 µM | 0.16 µM | CC(C)NC(=O)O[C@H]1CC[C@@H](c2cc(Nc3ccc4c(c3F)CS(=O)(=O)N4C3CC3)n[nH]2)C1 (single isomer, unassigned) [Example 275b, cis-3-(3-((1-cyclopropyl-4-fluoro-2,2-dioxido-1,3-dihydrobenzo[c]isothiazol-5-yl)amino)-1H-pyrazol-5-yl)cyclopentyl isopropylcarbamate]
0.01 µM | 1.01 µM | CC(C)NC(=O)O[C@H]1CC[C@@H](c2cc(Nc3ccc4c(c3F)CN(C3CCCN(C)C3=O)S4(=O)=O)n[nH]2)C1 (relative stereo) [Example 88, cis-3-(3-((4-fluoro-2-(1-methyl-2-oxopiperidin-3-yl)-1,1-dioxido-2,3-dihydrobenzo[d]isothiazol-5-yl)amino)-1H-pyrazol-5-yl)cyclopentyl isopropylcarbamate]
0.0021 µM | 0.03 µM | CC(C)NC(=O)O[C@H]1CC[C@@H](c2cc(Nc3ccc4c(c3)CCS(=O)(=O)N4C)n[nH]2)C1 (relative stereo) [Example 250, cis-3-(3-((1-methyl-2,2-dioxido-3,4-dihydro-1H-benzo[c][1,2]thiazin-6-yl)amino)-1H-pyrazol-5-yl)cyclopentyl isopropylcarbamate]
0.014 µM | 0.285 µM | [2H]C([2H])([2H])N1c2ccc(Nc3cc([C@@H]4CC[C@H](OC(=O)NCCC)C4)[nH]n3)c(F)c2CS1(=O)=O (single isomer, unassigned) [Example 268a, cis-3-(3-((4-fluoro-1-(methyl-d3)-2,2-dioxido-1,3-dihydrobenzo[c]isothiazol-5-yl)amino)-1H-pyrazol-5-yl)cyclopentyl propylcarbamate]
0.0016 µM | 0.102 µM | COCC(C)(C)NC(=O)O[C@H]1CC[C@@H](c2cc(Nc3ccc4c(c3F)CNS4(=O)=O)n[nH]2)C1 (relative stereo) [Example 364, cis-3-(3-((4-fluoro-1,1-dioxido-2,3-dihydrobenzo[d]isothiazol-5-yl)amino)-1H-pyrazol-5-yl)cyclopentyl(1-methoxy-2-methylpropan-2-yl)carbamate]
0.003 µM | 0.018 µM | O=C(NC1(CO)CCC1)O[C@H]1CC[C@@H](c2cc(Nc3ccc4c(c3)CS(=O)(=O)N4)n[nH]2)C1 (relative stereo) [Example 417, cis-3-(3-((2,2-dioxido-1,3-dihydrobenzo[c]isothiazol-5-yl)amino)-1H-pyrazol-5-yl)cyclopentyl(1-(hydroxymethyl)cyclobutyl)carbamate]
